The subject of one assay is RT-112. The assay is described as follows: SIA, collagen I invasion. The assay is classed as cell-based, human. As for the experimental part: (§1) 1000—2500 cells/well in 100 μl were seeded in 96 well Corning® Spheroid microplate (CLS4520, Sigma-Aldrich) or in cell-repellent 96 well microplate (650,790, Greiner Bio-one). SIA and analysis was performed as described before. In brief: After spheroid formation (24 – 72 h after seeding), 70 µl medium was removed and replaced with the collagen mixture (2.5 mg/ml Pure Col Collagen I (Advanced Biomatrix)), DMEM 1x (from 10 × stock, Sigma, D2429) and 0.4% Sodium bicarbonate (Sigma, S8761)), resulting in a final collagen concentration of 1.75 mg/ml. Embedded spheroids were stimulated with bFGF (100 ng/ml if not otherwise stated), HGF (30 ng /ml) or EGF (20 ng/ml) and distance of invaded cells quantified 24 – 48 h after embedding. Compounds and BGJ398 were added in Dimethylsulfoxid (DMSO) and corresponding DMSO concentrations were used in control samples.

A further assay relates to DAOY siFRS2 cells. The assay is described as follows: SIA, bFGF-induced collagen I invasion in FRS2-depleted cells. The assay is classed as cell-based, human. As for the experimental part: as §1
siFRS2 in DAOY cells: 50,000 cells/well in 2 ml medium were seeded in 6 well plates and incubated at 37 °C, 5% CO2. The following day cells were transfected with 10 nM siRNA (5 nM Silencer Select, 5 nM Stealth RNAi siRNA) using Lipofectamin RNAiMAX Transfection Reagent (13,778,075; Invitrogen) and Opti-MEM® medium (15,392,402; Gibco). After 6 h, the medium was exchanged with fresh complete medium and further processed for the SIA protocol.

The next assay relates to DMS114. As to the kind of experiment: Boyden chamber transwell migration assay. The assay is classed as cell-based, human. The following applies: 24 h. The procedure:
(§2) Transwells with 5 μm pore size (83.3932.500; Sarstedt) were coated with 50 µl of 0.06 μg/μl Pure Col Collagen I (5005; Advanced BioMatrix) dissolved in 100% EtOH for a final concentration of 10 μg/cm^2. 10,000 – 15,000 cells were resuspended in serum-free medium or serum-free medium containing the appropriate treatment and seeded in the upper chamber of a 24 well plate containing the coated transwell. The lower chamber was filled with either serum-free medium or serum-free medium with bFGF (25 ng/ml). Transwell migration was allowed for 24 h (DMS114) or 48 h (HCT116) at 37 °C, 5% CO2. Inserts were washed twice with PBS and the remaining non-invading cells on the upper surface of the membrane were removed using a cotton swab. The cells were fixed in 4% paraformaldehyde (28908; Thermo Fisher Scientific) in PBS for 5 min at RT. Fixed cells were washed twice with PBS and stained with DAPI for 15 min at RT. Inserts were washed three times in PBS before images of DAPI-stained nuclei were acquired using a widefield Nikon Ti2 microscope at 40 × magnification. Nuclei were counted on the membrane areas using ImageJ software and plotted on Prism 9 software (GraphPad).

The test system of the next assay is HCT116. The assay is described as follows: Boyden chamber transwell migration assay. The assay is classed as cell-based, human. The following applies: 2.5, 5 or 10 µM, 48 h. As for the experimental part:
as §2

The test system of the next assay is SKOV3 flank tumors. The assay is described as follows: Anti-tumor activity, SKOV3 flank xenograft model. The assay is classed as in vivo, mice. The following applies: 200 mg/kg PO once per day. As for the experimental part:
SKOV3 model: SKOV3 cells were cultured in McCoy´s 5A (26,600–023, ThermoFisher) media (10%FCS) until P7. Freshly isolated cells (1 × 10^6) with a viability of 98% were subcutaneously transplanted to left flank of 8-week-old female mice in PBS/Matrigel (1:1). […] Tumor diameters were determined by calliper measurements 2 × weekly, body weight (BW) was measured as parameter for tolerability 2 × weekly. For assessing significance of differences between treatments at the individual timepoints, a two-way ANOVA analysis with Turkey’s multiple comparison test was performed.

The target of a further assay is T1, FRS2 (Homo sapiens, UniProt Q8WU20).
T1 construct: we used the cellular thermal shift assay (CETSA [36]) in DAOY cells; endogenous in cells; host or cells: DAOY cells (intact cells, or freeze-thaw lysates)
As to the kind of experiment: CETSA by IB, cell lysates. The assay is classed as binding. The note with it: DAOY lysates. The procedure:
Four 15 cm dishes with 0.5 × 10^6 DAOY cells per dish were grown in full medium o.n. Medium was then removed, cells washed with PBS, detached using trypsin, collected in regular growth medium, centrifuged (300 g, 25 °C, 5 min), washed with PBS and resuspended in 550 µl ice-cold PBS. Cells were lysed with three freeze–thaw cycles (freeze in liquid N2, thaw in 25 °C heat block, vortex quickly) and lysates were placed in aliquots of 250 µl on ice. Compound or solvent was added to 10 µM final concentration and samples were incubated 20 min at 4 °C under rotation. Ten 20 µl aliquots were dispensed in a pre-cooled PCR plate, which was sealed with aluminum foil and placed on ice until heat treatments. Heat treatment was performed in a gradient PCR machine with the following temperatures 40.5, 43.6, 46.2, 48.8. 51.2, 53.8, 56.4, 58.3, 61.7 and 73.8 °C for three min. Plate with samples was kept at RT for 3 min and then kept on ice until centrifugation for 2 min at 500 × g at RT.
Samples were incubated 1 h at 4 °C, with shaking at 500 rpm. Samples are filtered using a MultiScreenHTS HV-Filterplate (Merck, MSHVN4510). Membrane wells were prewetted with 50 µl PBS and centrifuged at 2000 g, RT, 3 min. The lysates were centrifuged at 2000 g, RT, 3 min and 40 µl of each supernatant was transferred to the filterplate and centrifuged at 500 g at RT for 5 min. […]

The EC50 is the concentration at which the effect is half-maximal. Broadly, the IC50 is the concentration that inhibits the measured activity by half. Read a low IC50 as higher potency. A word on the ΔTm: it is the shift of the melting midpoint relative to a reference.

SMILES strings stand for the structures.

T1 sequence (Q8WU20 whole entry): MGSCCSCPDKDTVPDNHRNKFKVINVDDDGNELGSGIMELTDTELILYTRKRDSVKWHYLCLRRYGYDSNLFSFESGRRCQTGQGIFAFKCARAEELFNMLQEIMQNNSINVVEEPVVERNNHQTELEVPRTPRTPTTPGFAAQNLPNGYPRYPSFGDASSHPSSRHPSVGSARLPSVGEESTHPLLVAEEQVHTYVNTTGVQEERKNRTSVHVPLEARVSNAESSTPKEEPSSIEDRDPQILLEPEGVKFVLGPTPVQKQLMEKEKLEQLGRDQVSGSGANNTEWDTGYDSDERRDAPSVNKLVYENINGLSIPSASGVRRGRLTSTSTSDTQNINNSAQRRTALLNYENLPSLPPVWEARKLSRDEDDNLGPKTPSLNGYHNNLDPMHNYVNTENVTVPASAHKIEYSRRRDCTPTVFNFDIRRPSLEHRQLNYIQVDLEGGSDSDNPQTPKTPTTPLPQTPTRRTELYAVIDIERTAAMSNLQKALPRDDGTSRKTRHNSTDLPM

For `O=[N+]([O-])c1c(Cl)cc(O)c2c1C1C=CCC1C(c1ccc(Cl)cc1)N2` (stereo not drawn) [Compound 7], the EC50 in the assay with RT-112 (Homo sapiens, RT-112) stood at 1.06 µM. Besides, in the assay on RT-112 (RT-112 (FGFR3-TACC3 fusion)), the “basal and ligand-induced collagen I invasion (result in words)” value is “reduced both basal and ligand-induced collagen I invasion”. Moreover, the IC50 in the assay with DAOY siFRS2 cells (Homo sapiens, DAOY siFRS2 (reduced FRS2)) came to 7.96 µM. Moreover, the “increase of IC50 in cells with reduced FRS2 compared to control” value with DAOY siFRS2 cells (siFRS2 vs siCTL) is given as “more than 2.5 fold”. The “concentration at which significant reduction of transwell migration was observed” value with DMS114 is reported as 10 µM. The “basal and bFGF-increased transwell migration (result in words)” value in the assay with HCT116 is given as “abolished”. In the assay with SKOV3 flank tumors, the “mice with less than average control tumor growth during treatment” value was “six out of the seven”; the “tumor growth (result in words)” value is “significant reduction in tumor growth between d55 and d80”. In addition, the ΔTm at 10 µM on FRS2 is -4.93 °C.

(Values after paper PMC10060354, “Discovery of a small molecule ligand of FRS2 that inhibits invasion and tumor growth” (Cellular Oncology, 2022).)
